Laboratory results from US20240158446A1, “CYCLIC COMPOUND HAVING SELECTIVE INHIBITORY ACTION ON KRAS OVER HRAS AND NRAS” (CHUGAI SEIYAKU KABUSHIKI KAISHA, priority 2021, published 2024).
One block for each molecule: values may come before it.

Experiments:
[1] = molecular target: GDP-bound HRAS wild-type protein (Homo sapiens, UniProt P01112); experiment: Binding to HRAS by surface plasmon resonance (SPR), Single Cycle Kinetics; settings: for HRAS/KRAS (ratio of KD value with respect to GDP-bound HRAS wild-type protein to KD value with respect to KRAS): SPR KD ratio HRAS/KRAS, class symbols; for HRAS/KRAS (ratio of KD value for HRAS to KD value for KRAS): SPR, GDP-bound HRAS wild-type protein vs GDP-bound KRAS wild-type protein
[2] = molecular target: GDP-bound NRAS wild-type protein (Homo sapiens, UniProt P01111); experiment: Binding to NRAS by surface plasmon resonance (SPR), Single Cycle Kinetics; settings: for NRAS/KRAS (ratio of KD value with respect to GDP-bound NRAS wild-type protein to KD value with respect to KRAS): SPR KD ratio NRAS/KRAS, class symbols; for NRAS/KRAS (ratio of KD value for NRAS to KD value for KRAS): SPR, GDP-bound NRAS wild-type protein vs GDP-bound KRAS wild-type protein
[3] = tested on: human lung cancer strain NCI-H441;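 note: cell proliferation inhibition after four days measured by CellTiter-Glo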

GDP-bound HRAS wild-type protein, sequence (P01112 whole entry): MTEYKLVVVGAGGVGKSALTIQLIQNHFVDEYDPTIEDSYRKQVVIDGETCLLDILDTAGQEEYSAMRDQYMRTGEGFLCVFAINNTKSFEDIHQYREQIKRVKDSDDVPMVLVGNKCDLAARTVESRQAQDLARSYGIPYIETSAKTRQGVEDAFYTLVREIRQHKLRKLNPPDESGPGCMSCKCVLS
GDP-bound NRAS wild-type protein, sequence (P01111 whole entry): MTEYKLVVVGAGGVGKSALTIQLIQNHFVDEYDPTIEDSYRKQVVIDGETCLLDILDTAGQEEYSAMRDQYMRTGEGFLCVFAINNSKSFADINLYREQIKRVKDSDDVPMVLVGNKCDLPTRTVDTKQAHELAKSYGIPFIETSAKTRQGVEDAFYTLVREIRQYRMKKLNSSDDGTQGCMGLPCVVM

IC50 [3]: 62.4 nM
SMILES: CCC(CC)[C@H]1C(=O)N(C)[C@H](C(=O)N(C)C)CC(=O)N(C)[C@@H](COC)C(=O)N[C@@H]([C@@H](C)CC)C(=O)N(C)CC(=O)N(C)[C@H]2C/C=C\CCN(C2=O)[C@@H](Cc2ccc(C)cc2)C(=O)N(C)CC(=O)N[C@@H](CCc2ccc(Cl)c(Cl)c2)C(=O)N2CC3(CC3)C[C@H]2C(=O)N(C)C2(CC(C)(C)C2)C(=O)N1C [PP2820]
HRAS/KRAS (ratio of KD value with respect to GDP-bound HRAS wild-type protein to KD value with respect to KRAS) [1]: A (a compound having 10 or more and less than 20 is denoted as A) | NRAS/KRAS (ratio of KD value with respect to GDP-bound NRAS wild-type protein to KD value with respect to KRAS) [2]: AA (a compound having 20 or more is denoted as AA)

IC50 [3]: 29.7 nM
SMILES: CCC[C@H]1C(=O)N[C@@H]([C@@H](C)CC)C(=O)N(C)CC(=O)N(C)[C@H]2C/C=C\CCN(C2=O)[C@@H](Cc2ccc(C)cc2)C(=O)N(C)CC(=O)N[C@@H](CCc2ccc(C(F)(F)F)c(OC)c2)C(=O)N2CC3(CC3)C[C@H]2C(=O)NC2(CC(C)(C)C2)C(=O)N(C)[C@@H](CC(C)C)C(=O)N(C)[C@H](C(=O)N(C)C)CC(=O)N1C [PP3013]
HRAS/KRAS (ratio of KD value for HRAS to KD value for KRAS) [1]: B (a compound having 3 or more and less than 10 is denoted as B) | NRAS/KRAS (ratio of KD value for NRAS to KD value for KRAS) [2]: AA (a compound having 20 or more is denoted as AA)

Continued, molecule first:

SMILES: CCC(CC)[C@H]1C(=O)N(C)[C@H](C(=O)N(C)C)CC(=O)N(C)[C@@H](COC)C(=O)N[C@@H]([C@@H](C)CC)C(=O)N(C)CC(=O)N(C)[C@H]2C/C=C\CCN(C2=O)[C@@H](Cc2ccc(C)cc2)C(=O)N(C)CC(=O)N[C@@H](CCc2ccc(Cl)c(Cl)c2)C(=O)N2C[C@H](OC3CCC3)C[C@H]2C(=O)N(C)C2(CC(C)(C)C2)C(=O)N1C [PP2816]
HRAS/KRAS (ratio of KD value with respect to GDP-bound HRAS wild-type protein to KD value with respect to KRAS) [1]: A (a compound having 10 or more and less than 20 is denoted as A) | NRAS/KRAS (ratio of KD value with respect to GDP-bound NRAS wild-type protein to KD value with respect to KRAS) [2]: AA (a compound having 20 or more is denoted as AA) | IC50 [3]: 22.8 nM

SMILES: CCC[C@H]1C(=O)N[C@@H]([C@@H](C)CC)C(=O)N(C)CC(=O)N(C)[C@H]2C/C=C\CCN(C2=O)[C@@H](Cc2ccc(C)cc2)C(=O)N(C)CC(=O)N[C@@H](CCc2ccc3ccn(C)c3c2)C(=O)N2C[C@H](OCC)C[C@H]2C(=O)NC2(CC(C)(C)C2)C(=O)N(C)[C@@H](C(CC)CC)C(=O)N(C)[C@H](C(=O)N(C)C)CC(=O)N1C [PP2914]
HRAS/KRAS (ratio of KD value with respect to GDP-bound HRAS wild-type protein to KD value with respect to KRAS) [1]: A (a compound having 10 or more and less than 20 is denoted as A) | NRAS/KRAS (ratio of KD value with respect to GDP-bound NRAS wild-type protein to KD value with respect to KRAS) [2]: AA (a compound having 20 or more is denoted as AA) | IC50 [3]: 311 nM

SMILES: CCC[C@H]1C(=O)N[C@@H]([C@@H](C)CC)C(=O)N(C)CC(=O)N(C)[C@H]2C/C=C\CCN(C2=O)[C@@H](Cc2ccc(C)cc2)C(=O)N(C)CC(=O)N[C@@H](CCc2ccc(C(F)(F)F)c(OC)c2)C(=O)N2C[C@H](OCC)C[C@H]2C(=O)NC2(CC(C)(C)C2)C(=O)N(C)[C@@H](CC(F)(F)F)C(=O)N(C)[C@H](C(=O)N(C)C)CC(=O)N1C [PP3007]
HRAS/KRAS (ratio of KD value for HRAS to KD value for KRAS) [1]: A (a compound having 10 or more and less than 20 is denoted as A) | NRAS/KRAS (ratio of KD value for NRAS to KD value for KRAS) [2]: A (a compound having 10 or more and less than 20 is denoted as A) | IC50 [3]: 63.4 nM

SMILES: CCC[C@H]1C(=O)N[C@@H]([C@@H](C)CC)C(=O)N(C)CC(=O)N(C)[C@H]2C/C=C\CCN(C2=O)[C@@H](Cc2ccc(C)cc2)C(=O)N(C)CC(=O)N[C@@H](CCc2ccc(C(F)(F)F)c(OC)c2)C(=O)N2CC3(CC3)C[C@H]2C(=O)NC2(CC(C)(C)C2)C(=O)N(C)[C@@H]([C@@H](C)CC)C(=O)N(C)[C@H](C(=O)N(C)C)CC(=O)N1C [PP3011]
HRAS/KRAS (ratio of KD value for HRAS to KD value for KRAS) [1]: B (a compound having 3 or more and less than 10 is denoted as B) | NRAS/KRAS (ratio of KD value for NRAS to KD value for KRAS) [2]: A (a compound having 10 or more and less than 20 is denoted as A) | IC50 [3]: 31.1 nM
